Patent US20220211726A1, “UVEAL MELANOMA TREATMENT” (Katholieke Universiteit Leuven, priority 2019, published 2022)

Columns and labels:
[1] = system: uveal melanoma (UM 92.1) cell line; assay: IncuCyte proliferation assay (% cell confluency); type: cell-based; conditions: UM 92.1 (GNAQ mutant), increasing concentrations of Tigecycline, 72 h, FIG. 4
Procedure: (§1) For IncuCyte Proliferation Assays, cells were plated in 96-well plates (TPP) at the appropriate density (between 2.5×10^3, to 1.5×10^4). Cells were treated with increasing amounts of Tigecycline or Doxycycline and cultured for 72 h. Apoptotic cells were labelled with the IncuCyte Caspase 3/7 Green Apoptosis Assay Reagent (Essen BioScience). Four images per well were taken at 2-hour intervals using an IncuCyte ZOOM system (Essen BioScience). The percentage of cell confluency and fluorescent green counts indicating apoptotic cells were measured and analysed by the IncuCyte ZOOM software.

[2] = system: uveal melanoma cell line (UM92.1); assay: IncuCyte Caspase 3/7 Green apoptosis assay; type: cell-based; conditions: UM92.1, increasing concentrations of Tigecycline
Procedure: as §1

[3] = system: uveal melanoma PDX model Mel-077; assay: Uveal melanoma PDX experiment, tumour volume; type: in vivo; conditions: Mel-077 PDX mice, Tigecycline 50 mg/kg daily i.p. monotreatment vs vehicle (DMSO), FIG. 5
Procedure: Tumour pieces were implanted subcutaneously in the interscapular fat pad of female NMRI nude, 4-week-old females. Once tumours reached 250 mm^3, the mice were enrolled into treatment cohorts. Mice were treated with Tigecycline (50 mg/kg) administered by daily i.p. injection. No specific randomization method was used.

SMILES: CN(C)c1cc(NC(=O)CNC(C)(C)C)c(O)c2c1C[C@H]1C[C@H]3[C@H](N(C)C)C(O)=C(C(N)=O)C(=O)[C@@]3(O)C(O)=C1C2=O [Tigecycline]
- cell growth (measured as % of cell confluency) [1]: significant and dose-dependent decrease in cell growth
- apoptosis (activated caspase 3/7 staining) [2]: no increase in apoptosis
- tumour growth / progression (tumour volume) [3]: sufficient to stabilise tumour growth and significantly delay progression
